Measured values taken from patent US20050019746A1, “Apoptosis-related kinase/GPCRs” (EiRx Therapeutics Limited, priority 2003, published 2005).

Tests used:
Format in all cases: cell-based, human
SKOV3 cells = assay: 10-14 day Clonagenicity Assay (MTT), SKOV3; details: for percentage survival relative to the missense, n = 1: independent experiment n = 1, dilution point of maximum toxicity; for percentage survival relative to the missense, n = 2: independent experiment n = 2, dilution point of maximum toxicity; for percentage survival relative to the missense, n = 3: independent experiment n = 3, dilution point of maximum toxicity
In short: (§1)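 siRNA knockdown at 2 μg/ml (4 h transfection) in serially halved seed densities; cells grown 10-14 d at 37 °C, 5% CO2, then counted by MTT conversion. Values: mean % survival vs missense oligo at the dilution giving maximum toxicity.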

[1] = test system: target gene mRNA in TF1 cells; assay: Knockdown by RNAi, QPCR, TF1 cells; details: 48 hrs post transfection, relative to missense control; for % Knockdown by RNAi, TF1 + GMCSF: TF1 with GM-CSF; for % Knockdown by RNAi, TF1 − GMCSF: TF1 without GM-CSF
Description: In the case of TF1 cells, 2×10^5 cells/ well are transfected with 2 μg of siRNA in each well of a 24 well plate using […] DMRIE-C reagent (InVitrogen) per ml of Optimem (Gibco). Cells are simultaneously transfected in parallel with a control missense siRNA. Recombinant GM-CSF at 2 ng/ml is added to the OPTI-MEM media during transfection. The transfection media is replaced after four hours with fresh RPMI 1640 containing […] GMSCF and 10% FCS and incubated at 37° C. Twenty-four hours post-transfection, the media are changed; RPMI 1640+10% FCS containing […] GMSCF is added to 3 wells and RPMI 1640+10% FCS without GMSCF is added to the other 3 wells. These cells are harvested 48 and 72 hours post transfection for QPCR and phenotypic assays. Control TF1 cells, which are not transfected, are similarly treated. Samples are labeled T48+G, T48−G, according to the time of harvesting post-transfection and the presence (+G) or absence (−G) of GM-CSF in the media. RNA is isolated, cDNA is reverse transcribed and QPCR is performed as described above. Short Term (72 hrs post transfection) Cell Viability/Apoptosis assays employed are discussed below.
After DMRIE transfections with siRNA Oligos against the apoptosis associated genes identified herein, or controls, cells are harvested at 24 or 48 hours post transfection as stated previously. RNA is then extracted using RNeasy Miniprep columns (Qiagen 74104) after lysis on KIAshredder columns (Qiagen 79654). RNA is quantified by spectrophotometric analysis and 1 μg is reverse transcribed into cDNA using SuperScriptII RNAseH-Reverse Transcriptase (Invitrogen 18064-014). The levels of transcript are compared by QPCR as described in detail in Example 3, relative to missense controls. QPCR primers are designed to amplify a PCR product of approximately 100 to 300 nucleotides in length from the CDS, following the guidelines outlined in the Quantitect SYBR Green PCR handbook from Qiagen.
Two template standards are used for quantitative PCR assessment of mRNA levels: • 1. A control RPS13 i.e. Ribosomal Protein Sub unit 13 (NM_001017) amplified PCR product diluted to [1000,100,10,1 and 0.1 fg] respectively, used to quantify the level of transcript; • 2. RPS13 amplified from sample templates as separate PCR reactions for normalisation purposes.
The cDNA templates from appropriate cell lines transfected with either gene specific, positive control e.g. Survivin or missense control siRNA are amplified with gene-specific QPCR primers using QuantiTectSYBR Green PCR kit (Qiagen 204143) on a DNA Engine Opticon System (MJ Research) (as described in detail in Example 3). The amplification conditions include a 95° C. step for 15 min for initial activation of HotStarTaq DNA polymerase, followed by 35 cycles of (15 s at 94° C., 30 s at 60° C., 30 s at 72°). The fluorescence of the samples at 521 nm is read between the annealing and extension steps of the protocol. The melting curves are calculated at the end of the 35 cycles and confirm product homogeneity.
A standard curve is plotted using the log [template quantity] of the RPS 13 control template dilutions (as above) versus cycle number at which the fluorescence intensity measured in the well exceeds the level specified in the cycle threshold parameters (the C(T) value). An estimate of the quantity of initial template in treatment samples is determined from this plot and the amount of target mRNA present in each sample is normalized across samples by calculating the ratio of target to RPS13 for each sample.
The normalised expression values are used to estimate percentage knockdown of target with reference to the control, transfected, cells (in this case cells transfected with missense siRNA).

PC3 cells = assay: 10-14 day Clonagenicity Assay (MTT), PC3; details: for percentage survival relative to the missense, n = 1: independent experiment n = 1, dilution point of maximum toxicity; for percentage survival relative to the missense, n = 2: independent experiment n = 2, dilution point of maximum toxicity; for percentage survival relative to the missense, n = 3: independent experiment n = 3, dilution point of maximum toxicity
Description: The Clonagenicity Assay represents a Cell Viability Screen that allows assessment of a cytotoxic insult at a variety of seed densities of cancer cell lines over an extended period of logarithmic growth, such that the definitive effect of the test substance can be accurately quantified. In this instance, the ‘cytotoxic insult’ to be tested involves the transfection of siRNA Oligomers to knockdown the expression of novel target Kinases and GPCRs as outlined previously. Cell number is quantified 10-14 days post siRNA transfection by MTT conversion as described in detail in Example 6.
The Clonagenicity Assay is optimised for each cell line examined with respect to seed number. The seed number varies for each cell line and accounts for the differences in cell size, growth rate and sensitivity to transfection-induced toxicity for each cell line pursued. Cells lines given as models for this example include HCT15, MCF7, A549, SKOV3, DU145, U251, PC3, A498 and HeLa. The siRNA oligo to Survivin serves as a positive control for toxicity in this assay and the missense control oligomer acts as a negative control as described in detail in Examples 5 and 6. The c-Raf, BCL2 and PI3K siRNA oligomers serve as additional controls as previously mentioned. The Clonagenicity assay is performed as outlined below.
Cells are seeded into a 96-well plate as described below and allowed to adhere overnight at 37° C. in a humidified atmosphere containing 5% CO2 in air. Wells are seeded with an appropriate cell number (cell line dependent) in Column 1 of the 96 well plates and this cell suspension is diluted 1 in 2 across the 96 well plates from Column 1 through to 6 (represented on the x-axis in results). Cells are next transfected with siRNA Oligomers, at a concentration of 2 μg/ml, against the genes of interest. Transfections continue for 4 hrs after which the transfection solution is removed and cells are refed with fresh medium and allow to incubate overnight. An additional media change@24 hrs post transfection is made to minimise toxicity of the transfection reagent. Cells are subsequently incubated for a 10-14 Day period post transfection at a 37° C. incubation as described above. Medium is renewed weekly following which MTT quantification is performed as described in Example 5.
To be considered cytotoxic, the siRNA Oligo against the gene target must induce a decreased viability in a cell line across at least 2 seed densities in the clonagenicity assay, such that a significant difference between the target gene and MS is observed i.e. no crossing of the Standard Error bars is detected. The average percentage viability, relative to missense, is recorded for the dilution point at which Maximum Toxicity is induced is recorded in Table 13.
Table 13 Clonagenicity Assay—This table gives the average percentage survival of the indicated cell lines relative to the missense in a clonagenicity assay, over 3 independent experiments. As an internal reference, the known survival gene ‘Survivin’, BCL2, c-Raf and PI3KR1 was also targeted by siRNA. When no Cytotoxic response is detected ‘-’ is recorded.

A498 cells = assay: 10-14 day Clonagenicity Assay (MTT), A498; details: for percentage survival relative to the missense, n = 1: independent experiment n = 1, dilution point of maximum toxicity; for percentage survival relative to the missense, n = 3: independent experiment n = 3, dilution point of maximum toxicity
In short: as §1

siRNA EKI: siRNA duplex, sense GCACUGGAUCCAAAGCAUGtt, antisense CAUGCUUUGGAUCCAGUGCtt; same in Tables 9 and 11 (sense GCACUGGAUCCAAAGCAUGTT; antisense CAUGCUUUGGAUCCAGUGCTT; chemistry not given here)
percentage survival relative to the missense, n = 1 (SKOV3 cells): 10.5%
percentage survival relative to the missense, n = 2 (SKOV3 cells): 19.8%
percentage survival relative to the missense, n = 3 (SKOV3 cells): 20.6%
% Knockdown by RNAi, TF1 + GMCSF [1]: 46%
% Knockdown by RNAi, TF1 − GMCSF [1]: 58%
percentage survival relative to the missense, n = 1 (PC3 cells): 62%
percentage survival relative to the missense, n = 2 (PC3 cells): 40.4%
percentage survival relative to the missense, n = 3 (PC3 cells): 39.7%
percentage survival relative to the missense, n = 1 (A498 cells): 21.6%
percentage survival relative to the missense, n = 3 (A498 cells): 15.4%

siRNA FLT4: sense GUACGGCAACCUCUCCAACtt, antisense GUUGGAGAGGUUGCCGUACtt (sense GUACGGCAACCUCUCCAACTT; antisense GUUGGAGAGGUUGCCGUACTT; chemistry not given here)
percentage survival relative to the missense, n = 2 (SKOV3 cells): 61%
percentage survival relative to the missense, n = 3 (SKOV3 cells): 56.5%
percentage survival relative to the missense, n = 2 (PC3 cells): 71.7%
percentage survival relative to the missense, n = 3 (PC3 cells): 8.4%
percentage survival relative to the missense, n = 3 (A498 cells): 10%

siRNA GRAF: siRNA duplex, sense GCGGAAGUUUGCAGAUUCCtt, antisense GGAAUCUGCAAACUUCCGCtt; same in Tables 9 and 11 (sense GCGGAAGUUUGCAGAUUCCTT; antisense GGAAUCUGCAAACUUCCGCTT; chemistry not given here)
percentage survival relative to the missense, n = 1 (SKOV3 cells): 82.2%
% Knockdown by RNAi, TF1 + GMCSF [1]: 56%
% Knockdown by RNAi, TF1 − GMCSF [1]: 73%
percentage survival relative to the missense, n = 1 (A498 cells): 92.6%
percentage survival relative to the missense, n = 3 (A498 cells): 49.9%

siRNA MAK: sense GAAGCCAAGCAUGGGUGUUtt, antisense AACACCCAUGCUUGGCUUCtt (sense GAAGCCAAGCAUGGGUGUUTT; antisense AACACCCAUGCUUGGCUUCTT; chemistry not given here)
percentage survival relative to the missense, n = 1 (SKOV3 cells): 25.6%
percentage survival relative to the missense, n = 2 (SKOV3 cells): 40.3%
percentage survival relative to the missense, n = 1 (PC3 cells): 69.6%
percentage survival relative to the missense, n = 1 (A498 cells): 19.4%
percentage survival relative to the missense, n = 3 (A498 cells): 51.6%

siRNA MAPKK5: sense GAGGACAGGUUAAGCUGUGtt, antisense CACAGCUUAACCUGUCCUCtt (sense GAGGACAGGUUAAGCUGUGTT; antisense CACAGCUUAACCUGUCCUCTT; chemistry not given here)
percentage survival relative to the missense, n = 1 (SKOV3 cells): 18.5%
percentage survival relative to the missense, n = 3 (SKOV3 cells): 53.7%
% Knockdown by RNAi, TF1 − GMCSF [1]: 70%
percentage survival relative to the missense, n = 1 (PC3 cells): 30.5%
percentage survival relative to the missense, n = 3 (PC3 cells): 8.3%
percentage survival relative to the missense, n = 1 (A498 cells): 10.2%
percentage survival relative to the missense, n = 3 (A498 cells): 6.9%

siRNA MPSK1: sense GGGUUAUGCCCACAGAGACtt, antisense GUCUCUGUGGGCAUAACCCtt (sense GGGUUAUGCCCACAGAGACTT; antisense GUCUCUGUGGGCAUAACCCTT; chemistry not given here)
percentage survival relative to the missense, n = 1 (SKOV3 cells): 57.2%
percentage survival relative to the missense, n = 1 (A498 cells): 44.7%
percentage survival relative to the missense, n = 3 (A498 cells): 20.9%

siRNA NTKL: siRNA duplex, sense UGUGGAGCUGAUGAAGCACtt, antisense GUGCUUCAUCAGCUCCACAtt; same in Tables 9 and 11 (sense UGUGGAGCUGAUGAAGCACTT; antisense GUGCUUCAUCAGCUCCACATT; chemistry not given here)
percentage survival relative to the missense, n = 1 (SKOV3 cells): 6.2%
percentage survival relative to the missense, n = 2 (SKOV3 cells): 18.8%
percentage survival relative to the missense, n = 3 (SKOV3 cells): 14.9%
percentage survival relative to the missense, n = 1 (PC3 cells): 11.6%
percentage survival relative to the missense, n = 2 (PC3 cells): 45.7%
percentage survival relative to the missense, n = 3 (PC3 cells): 14.4%
percentage survival relative to the missense, n = 1 (A498 cells): 12.3%
percentage survival relative to the missense, n = 3 (A498 cells): 7.2%

siRNA PCTAIRE: sense GUCAGUGCCCACAAAGACUtt, antisense AGUCUUUGUGGGCACUGACtt (sense GUCAGUGCCCACAAAGACUTT; antisense AGUCUUUGUGGGCACUGACTT; chemistry not given here)
percentage survival relative to the missense, n = 1 (SKOV3 cells): 68.6%
% Knockdown by RNAi, TF1 + GMCSF [1]: 20%
% Knockdown by RNAi, TF1 − GMCSF [1]: 70%
percentage survival relative to the missense, n = 1 (A498 cells): 24.9%
percentage survival relative to the missense, n = 3 (A498 cells): 48.4%

siRNA ROCK: siRNA duplex, sense UACAUGCCUGGUGGAGAUCtt, antisense GAUCUCCACCAGGCAUGUAtt; same in Tables 9 and 11 (sense UACAUGCCUGGUGGAGAUCTT; antisense GAUCUCCACCAGGCAUGUATT; chemistry not given here)
percentage survival relative to the missense, n = 1 (SKOV3 cells): 11.7%
percentage survival relative to the missense, n = 2 (SKOV3 cells): 30.4%
percentage survival relative to the missense, n = 3 (SKOV3 cells): 40.7%
percentage survival relative to the missense, n = 1 (PC3 cells): 50.4%
percentage survival relative to the missense, n = 2 (PC3 cells): 32.3%
percentage survival relative to the missense, n = 3 (PC3 cells): 22.8%
percentage survival relative to the missense, n = 1 (A498 cells): 14.3%
percentage survival relative to the missense, n = 3 (A498 cells): 8.3%
